Assays:
[1] = biological target: T1, DDR1 (Homo sapiens, UniProt Q08345); assay: LanthaScreen Europium Kinase Binding assay, DDR1; settings: 5 nM DDR1, 20 nM Kinase Tracer 178, 1 h at rt; Ki from IC50 by Cheng-Prusoff; read-out: Ki DDR1
T1 construct: purchased Carna Biosciences
Experimental: (§1) DDR1 and DDR2 binding assays were performed using Life Technologies LanthaScreen™ Europium Kinase Binding assay. […] IC50 values were determined in GraphPad Prism 7.0 software, using 4 parameter model: log (inhibitor) vs. response. IC50 values were converted in Ki using the Cheng-Prusoff equation (Ki-IC50/(1+ [Tracer]/Kd).

[2] = biological target: T2, DDR2 (Homo sapiens, UniProt Q16832); assay: LanthaScreen Europium Kinase Binding assay, DDR2; settings: 5 nM DDR2, 10 nM Kinase Tracer 178, 1 h at rt; Ki from IC50 by Cheng-Prusoff; read-out: Ki DDR2
T2 construct: purchased Life Technologies
T2 sequence (Q16832 22-855): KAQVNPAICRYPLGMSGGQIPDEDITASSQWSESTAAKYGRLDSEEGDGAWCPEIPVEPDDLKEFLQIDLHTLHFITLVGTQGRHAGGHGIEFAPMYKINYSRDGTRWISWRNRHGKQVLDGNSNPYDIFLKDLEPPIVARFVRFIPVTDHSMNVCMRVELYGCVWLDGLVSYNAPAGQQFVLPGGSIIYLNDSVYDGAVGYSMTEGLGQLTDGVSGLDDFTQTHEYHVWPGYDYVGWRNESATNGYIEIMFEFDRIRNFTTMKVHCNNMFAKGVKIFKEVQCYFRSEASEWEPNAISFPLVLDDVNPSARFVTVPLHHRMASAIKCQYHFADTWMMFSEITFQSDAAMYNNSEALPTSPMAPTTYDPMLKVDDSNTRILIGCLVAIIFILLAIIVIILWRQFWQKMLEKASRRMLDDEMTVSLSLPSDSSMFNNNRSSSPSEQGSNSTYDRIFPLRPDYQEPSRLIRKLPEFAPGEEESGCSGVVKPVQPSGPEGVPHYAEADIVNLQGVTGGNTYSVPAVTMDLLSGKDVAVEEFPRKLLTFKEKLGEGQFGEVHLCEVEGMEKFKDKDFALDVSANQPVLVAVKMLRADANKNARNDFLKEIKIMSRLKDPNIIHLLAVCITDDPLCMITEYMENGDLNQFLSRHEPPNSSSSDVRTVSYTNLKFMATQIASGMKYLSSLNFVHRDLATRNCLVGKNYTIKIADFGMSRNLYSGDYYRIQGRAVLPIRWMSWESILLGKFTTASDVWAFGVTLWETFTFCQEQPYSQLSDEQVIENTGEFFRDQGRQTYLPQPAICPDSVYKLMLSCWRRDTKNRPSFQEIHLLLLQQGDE
Experimental: as §1

T1 sequence (Q08345 19-913): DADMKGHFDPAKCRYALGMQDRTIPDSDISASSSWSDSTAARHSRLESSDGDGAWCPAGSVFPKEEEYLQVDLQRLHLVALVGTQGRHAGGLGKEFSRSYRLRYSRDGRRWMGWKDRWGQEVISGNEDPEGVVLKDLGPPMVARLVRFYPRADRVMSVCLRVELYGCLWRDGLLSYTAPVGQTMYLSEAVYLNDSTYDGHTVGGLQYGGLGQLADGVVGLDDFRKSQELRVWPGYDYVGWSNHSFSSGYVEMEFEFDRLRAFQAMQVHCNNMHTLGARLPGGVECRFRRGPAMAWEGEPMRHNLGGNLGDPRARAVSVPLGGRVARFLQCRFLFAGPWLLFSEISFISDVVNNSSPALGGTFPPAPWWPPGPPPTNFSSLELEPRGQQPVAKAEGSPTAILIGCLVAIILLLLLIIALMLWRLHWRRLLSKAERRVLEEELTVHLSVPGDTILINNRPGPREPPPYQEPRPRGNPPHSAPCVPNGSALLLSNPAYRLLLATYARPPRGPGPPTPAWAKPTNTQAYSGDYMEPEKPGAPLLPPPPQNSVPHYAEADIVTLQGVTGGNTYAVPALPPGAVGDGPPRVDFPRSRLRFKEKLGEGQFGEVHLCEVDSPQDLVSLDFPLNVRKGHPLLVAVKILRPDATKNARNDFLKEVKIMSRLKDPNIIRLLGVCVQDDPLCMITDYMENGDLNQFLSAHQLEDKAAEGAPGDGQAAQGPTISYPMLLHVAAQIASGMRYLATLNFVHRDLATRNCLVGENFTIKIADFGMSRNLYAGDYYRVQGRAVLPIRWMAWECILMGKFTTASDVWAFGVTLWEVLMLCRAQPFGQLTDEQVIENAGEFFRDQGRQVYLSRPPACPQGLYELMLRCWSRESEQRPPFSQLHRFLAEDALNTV

SMILES	Ki [1] [nM]	Ki [2] [nM]
COCCn1cc(-c2ccc3c(C(=O)N4CC5(CC(N(C)C(=O)Nc6cncc(C(F)(F)F)c6)C5)C4)cnn3c2)cn1 [Example 227, 1-(2-(6-(1-(2-methoxyethyl)-1H-pyrazol-4-yl)pyrazolo[1,5-a]pyridine-3-carbonyl)-2-azaspiro[3.3]heptan-6-yl)-1-methyl-3-(5-(trifluoromethyl)pyridin-3-yl)urea]	< 5	5 to 25
CN(C(=O)Nc1cccc(S(F)(F)(F)(F)F)c1)C1CC2(C1)CN(C(=O)c1cnn3ccn(C)c13)C2 [Example 98, 1-methyl-1-(2-(1-methyl-1H-imidazo[1,2-b]pyrazole-7-carbonyl)-2-azaspiro[3.3]heptan-6-yl)-3-(3-(pentafluoro-16-sulfaneyl)phenyl)urea]	< 5	< 5
Cn1ccc2ncnc(C(=O)N3CC4(CC(NC(=O)Nc5cccc(C(F)(F)F)c5)C4)C3)c21 [Example 160, 1-(2-(5-methyl-5H-pyrrolo[3,2-d]pyrimidine-4-carbonyl)-2-azaspiro[3.3]heptan-6-yl)-3-(3-(trifluoromethyl)phenyl)urea]	5 to 25	5 to 25
Cn1ccn2ncc(C(=O)N3CC4(CC(N(CC(F)(F)F)C(=O)Nc5cccc(C(F)(F)F)c5)C4)C3)c12 [Example 174, 1-(2-(1-methyl-1H-imidazo[1,2-b]pyrazole-7-carbonyl)-2-azaspiro[3.3]heptan-6-yl)-1-(2,2,2-trifluoroethyl)-3-(3-(trifluoromethyl)phenyl)urea]	< 5	5 to 25
O=C(Nc1cccc(C(F)(F)F)c1)NC1CC2(C1)CN(C(=O)c1ncnc3ccsc13)C2 [Example 79, 1-(2-(thieno[3,2-d]pyrimidine-4-carbonyl)-2-azaspiro[3.3]heptan-6-yl)-3-(3-(trifluoromethyl)phenyl)urea]	< 5	< 5
CN(C(=O)Nc1cc(C(F)(F)F)ccn1)C1CC2(C1)CN(C(=O)c1ncnc3ccsc13)C2 [Example 263, 1-methyl-1-(2-(thieno[3,2-d]pyrimidine-4-carbonyl)-2-azaspiro[3.3]heptan-6-yl)-3-(4-(trifluoromethyl)pyridin-2-yl)urea]	< 5	5 to 25
O=C(Nc1cc(C(F)(F)F)ccc1F)NC1CC2(C1)CN(C(=O)c1cnn3ccncc13)C2 [Example 17, 1-(2-fluoro-5-(trifluoromethyl)phenyl)-3-(2-(pyrazolo[1,5-a]pyrazine-3-carbonyl)-2-azaspiro[3.3]heptan-6-yl)urea]	< 5	5 to 25
CN(C(=O)Nc1ccc(F)c(C(F)(F)F)c1)C1CC2(C1)CN(C(=O)c1cnn3ccn(C)c13)C2 [Example 131, 3-(4-fluoro-3-(trifluoromethyl)phenyl)-1-methyl-1-(2-(1-methyl-1H-imidazo[1,2-b]pyrazole-7-carbonyl)-2-azaspiro[3.3]heptan-6-yl)urea]	< 5	5 to 25
COc1ccc(C(F)(F)F)cc1NC(=O)N(C)C1CC2(C1)CN(C(=O)c1ncnc3[nH]ccc13)C2 [Example 260, 1-(2-(7H-pyrrolo[2,3-d]pyrimidine-4-carbonyl)-2-azaspiro[3.3]heptan-6-yl)-3-(2-methoxy-5-(trifluoromethyl)phenyl)-1-methylurea]	< 5	5 to 25
O=C(Nc1cccc(C(F)(F)F)c1)NC1CC2(C1)CN(C(=O)c1cnc3ccccn13)C2 [Example 1, 1-(2-(imidazo[1,2-a]pyridine-3-carbonyl)-2-azaspiro[3.3]heptan-6-yl)-3-(3-(trifluoromethyl)phenyl)urea]	< 5	5 to 25
COc1c(CO)cc(OC(F)(F)F)cc1NC(=O)NC1CC2(C1)CN(C(=O)c1cnn3ccncc13)C2 [Example 212, 1-(3-(hydroxymethyl)-2-methoxy-5-(trifluoromethoxy)phenyl)-3-(2-(pyrazolo[1,5-a]pyrazine-3-carbonyl)-2-azaspiro[3.3]heptan-6-yl)urea]	5 to 25	25 to 100
O=C(Nc1cccc(C(F)(F)F)c1)NC1CC2(C1)CN(C(=O)c1cnn3c1SCCC3)C2 [Example 136, 1-(2-(6,7-dihydro-5H-pyrazolo[5,1-b][1,3]thiazine-3-carbonyl)-2-azaspiro[3.3]heptan-6-yl)-3-(3-(trifluoromethyl)phenyl)urea]	< 5	5 to 25
O=C(Nc1cncc(C(F)(F)F)c1)NC1CC2(C1)CN(C(=O)c1cnn3ccsc13)C2 [Example 22, 1-(2-(pyrazolo[5,1-b]thiazole-7-carbonyl)-2-azaspiro[3.3]heptan-6-yl)-3-(5-(trifluoromethyl)pyridin-3-yl)urea]	< 5	5 to 25
CC(C)c1cncc(NC(=O)NC2CC3(C2)CN(C(=O)c2cnn4ccsc24)C3)c1 [Example 35, 1-(5-isopropylpyridin-3-yl)-3-(2-(pyrazolo[5,1-b]thiazole-7-carbonyl)-2-azaspiro[3.3]heptan-6-yl)urea]	< 5	5 to 25
CN1CCN(c2ccn3ncc(C(=O)N4CC5(CC(NC(=O)Nc6cccc(C(F)(F)F)c6)C5)C4)c3c2)CC1 [Example 84, 1-(2-(5-(4-methylpiperazin-1-yl)pyrazolo[1,5-a]pyridine-3-carbonyl)-2-azaspiro[3.3]heptan-6-yl)-3-(3-(trifluoromethyl)phenyl)urea]	< 5	5 to 25
CN(C(=O)Nc1cncc(C(F)(F)F)c1)C1CC2(C1)CN(C(=O)c1cnn3ccc(N4CCC(F)(F)C4)cc13)C2 [Example 252, 1-(2-(5-(3,3-difluoropyrrolidin-1-yl)pyrazolo[1,5-a]pyridine-3-carbonyl)-2-azaspiro[3.3]heptan-6-yl)-1-methyl-3-(5-(trifluoromethyl)pyridin-3-yl)urea]	< 5	5 to 25
CN(C(=O)Nc1cc(C(F)F)ccn1)C1CC2(C1)CN(C(=O)c1cnn3ccsc13)C2 [Example 255, 3-(4-(difluoromethyl)pyridin-2-yl)-1-methyl-1-(2-(pyrazolo[5,1-b]thiazole-7-carbonyl)-2-azaspiro[3.3]heptan-6-yl)urea]	< 5	5 to 25
O=C(Nc1cc(C(F)(F)F)ccn1)NC1CC2(C1)CN(C(=O)c1ccnc3[nH]ncc13)C2 [Example 145, 1-(2-(1H-pyrazolo[3,4-b]pyridine-4-carbonyl)-2-azaspiro[3.3]heptan-6-yl)-3-(4-(trifluoromethyl)pyridin-2-yl)urea]	< 5	5 to 25
CCc1ncc(C(F)(F)F)cc1NC(=O)NC1CC2(C1)CN(C(=O)c1cnn3ccn(C)c13)C2 [Example 309, 1-(2-ethyl-5-(trifluoromethyl)pyridin-3-yl)-3-(2-(1-methyl-1H-imidazo[1,2-b]pyrazole-7-carbonyl)-2-azaspiro[3.3]heptan-6-yl)urea]	< 5	5 to 25
COc1ccc(S(F)(F)(F)(F)F)cc1NC(=O)NC1CC2(C1)CN(C(=O)c1cnn3ccn(C)c13)C2 [Example 109, 1-(2-methoxy-5-(pentafluoro-16-sulfaneyl)phenyl)-3-(2-(1-methyl-1H-imidazo[1,2-b]pyrazole-7-carbonyl)-2-azaspiro[3.3]heptan-6-yl)urea]	< 5	< 5
O=C(CC1CC2(C1)CN(C(=O)c1cnn3ccsc13)C2)Nc1cccc(C(F)(F)F)c1 [Example 27, 2-(2-(pyrazolo[5,1-b]thiazole-7-carbonyl)-2-azaspiro[3.3]heptan-6-yl)-N-(3-(trifluoromethyl)phenyl)acetamide]	< 5	< 5
O=C(Nc1cccc(C(F)(F)F)c1)NC1CC2(C1)CN(C(=O)c1cnn3ccccc13)C2 [Example 40, 1-(2-(pyrazolo[1,5-a]pyridine-3-carbonyl)-2-azaspiro[3.3]heptan-6-yl)-3-(3-(trifluoromethyl)phenyl)urea]	< 5	< 5
O=C(Nc1cccc(C(F)(F)F)c1)NC1CC2(C1)CN(C(=O)c1cnc3cccnn13)C2 [Example 7, 1-(2-(imidazo[1,2-b]pyridazine-3-carbonyl)-2-azaspiro[3.3]heptan-6-yl)-3-(3-(trifluoromethyl)phenyl)urea]	5 to 25	5 to 25
Cc1ccc(OC(F)(F)F)cc1NC(=O)CC1CC2(C1)CN(C(=O)c1cnn3ccn(C)c13)C2 [Example 278, 2-(2-(1-methyl-1H-imidazo[1,2-b]pyrazole-7-carbonyl)-2-azaspiro[3.3]heptan-6-yl)-N-(2-methyl-5-(trifluoro-methoxy)phenyl)acetamide]	< 5	5 to 25
